We go through 5 compounds from patent publication EP2266622A2, “Prodrugs containing novel bio-cleavable linkers” (Piramal Life Sciences Limited, priority 2004, dated 2006).

Entries after “also recorded” stand apart in the source; their conditions may differ. Marks after values point to notes of the source that are not given here.

For data set [1], the system named is mucosal damage.
Data set [2] has as its system MES-induced seizures. Kind of data set: Test 1: Maximal Electroshock Test (MES), mice i.p. The class given is in vivo. The following applies: for MES: class symbol = dose. The protocol: (§1) Most of the prodrugs and mutual prodrugs of anticonvulsants described in this invention were evaluated at National Institute of Neurological Disorders and Stroke (NINDS), National Institute of Health (NIH), under their Antiepileptic Screening Program (ASP).
(§2) Test 1 is an initial screening for anticonvulsant activity in the Maximal Electroshock Test (MES) and Subcutaneous Metrazol Seizure Threshold Test (scMET) models combined with an initial assessment of toxicity (TOX) in mice via i.p. injection (see further explanation below). The data for each condition is presented as N/F, where N = number of animals protected from seizure and F = number of animals tested. For test of toxicity, N = number of animals displaying toxic effects and F = number of animals tested. Any deaths occurring during the test were recorded.
(§3) Maximal Electroshock Test (MES): The MES is a model for generalized tonic-clonic seizure and provides an indication of a compound's ability to prevent seizure spread when all neuronal circuits in the brain are maximally active. These seizures are highly reproducible and electro-physiologically consistent with human seizures. For all tests based on MES convulsions, 60 Hz of alternating current (50 mA in mice) is delivered for […] by corneal electrodes, which have been primed with an electrolyte solution containing an anesthetic agent (0.5% tetracaine hydrochloride). Mice were tested at various intervals following doses of 30, 100 and 300 mg/kg of test compound given by i.p. injection of a volume of 0.01 mL/g. Other doses can be used if indicated by previously known pharmacology. An animal is considered "protected" from MES-induced seizures upon abolition of the hind-limb tonic extensor component of the seizure.
Background: The maximal electroshock test induces tonic seizures with an electrical stimulus.

Data set [3] relates to clonic seizures. Put plainly: Test 1: Subcutaneous Metrazol Seizure Threshold Test (scMET), mice i.p. The class given is in vivo. The following applies: for ScMET: class symbol = dose. The protocol: as §1, §2
Subcutaneous Metrazol Seizure Threshold Test (scMET): Subcutaneous injection of the convulsant metrazol produces clonic seizures in laboratory animals. […] Animals were pretreated with various doses of the test compound given by i.p. injection. At the previously determined Time to Peak Effect (TPE) of the test compound, the dose of metrazol which will produce convulsions in 97% of animals (CD97: 85 mg/kg in mice) was injected into a loose fold of skin in the midline of the neck. The animals were placed in isolation cages to minimize stress and observed for the next 30 minutes for the presence or absence of a seizure. An episode of clonic spasms, approximately […], of the fore and/or hind limbs, jaws, or vibrissae is taken as the end point.

In data set [4] the test system is minimal muscular or neurological impairment. Kind of data set: Test 1: Acute toxicity, minimal motor impairment (rotorod), mice i.p. Type of data set: in vivo. The following applies: for Rotorod Toxicity: class symbol = dose. Here is the method: as §1, §2
On the technique in general: The rotarod test checks motor coordination on a turning rod.

Data set [5] deals with MES-induced seizures. Kind of data set: Test 2: MES, rats p.o. The class given is in vivo.
Source text: as §3
(§4) Rats received test compounds orally.

Data set [6] deals with Neurological toxicity. Put plainly: Test 2: neurological toxicity, rats p.o. The class given is in vivo. The following applies: 30 mg/kg.
Source text: as §4

Where [7] appears, read: 100 mg/kg (++), 2 hours after dosing.
[8] abbreviates: at 2 hours after dosing (footnote h).

With `CC(=O)Oc1ccccc1C(=O)O` [Aspirin], in data set [1] (rat, in vivo, po, 100 mg/kg), the “haemorrhagic lesions (area), Mean ± S.E.M.” value was 2.7 ± 0.9 mm^2 and the “ulcer development (in words)” value was “severe haemorrhagic lesions”. Further, in data set [1] (rats, oral, high equivalent doses compared to aspirin), the “gastrointestinal safety (summary in words)” value was “caused severe ulcers”.
In the case of `Nc1nc(NC(=O)OCCSSCCOC(=O)NCC2(CC(=O)O)CCCCC2)nnc1-c1cccc(Cl)c1Cl` [I-AA-MPD11], the “activity in MES (Test 1, in words)” value in data set [2] was “active in MES”. The “MES (number of animal protected/number of animal tested)” value in data set [2] (100 mg/kg (++), 4.0 h) is on record as 3/3; in data set [2] (300 mg/kg (+), 0.5 h) it was 1/1; in data set [2] (300 mg/kg (+), 4.0 h), 1/1; in data set [5] (30 mg/kg, 0.50 h), 0/4; in data set [5] (30 mg/kg, 1.00 h), 2/4; in data set [5] (30 mg/kg, 2.00 h), 1/4. Further, the “MES (number of animal protected/number of animal tested)” value in data set [5] (30 mg/kg, 4.00 h) is 4/4. In addition, the ScMET result in data set [3] (0.5 h) and in data set [3] (4.0 h) was “- (- = no activity or no toxicity at 300 mg/kg)” in each case. Besides, in data set [4], the “toxicity (Test 1, in words)” value is on record as “no or mild toxicity”. In addition, the “Rotorod Toxicity (number of animals exhibiting toxicity/number of animals tested)” value in data set [4] (300 mg/kg (+), 0.5 h) is recorded as 1/4. Also, the “Rotorod Toxicity” value in data set [4] (4.0 h) was “- (- = no activity or no toxicity at 300 mg/kg)”. The “Toxicity (number of animals exhibiting toxicity/number of animals tested)” value in data set [6] (0.50 h), in data set [6] (1.00 h), in data set [6] (2.00 h) and in data set [6] (4.00 h) was 0/4 in each case.
For the compound `CCCC(CCC)C(=O)OCCSSCCOC(=O)Nc1nnc(-c2cccc(Cl)c2Cl)c(N)n1` [I-CA-MPD23], in data set [2], the “activity in MES (Test 1, in words)” value is recorded as “active in MES”. Besides, the “MES (number of animal protected/number of animal tested)” value in data set [2] (setting [7]) is given as 1/3; in data set [2] (300 mg/kg (+), 4.0 h), 1/3; in data set [5] (150 mg/kg, 2.00 h), 4/4; in data set [5] (150 mg/kg, 4.00 h), 4/4; in data set [5] (150 mg/kg, 6.00 h), 4/4; in data set [5] (150 mg/kg, 8.00 h) it was 4/4. The figures for the MES entry in data set [2] (0.5 h), in data set [2] (4.0 h) and in data set [2] (setting [8]) were “- (- = no activity or no toxicity at 300 mg/kg)”, “+ (+ = activity or toxicity at 300 mg/kg)” and “++ (++ = activity or toxicity at 100 mg/kg)”, respectively. Moreover, the ScMET entry in data set [3] (0.5 h) and in data set [3] (4.0 h) was “- (- = no activity or no toxicity at 300 mg/kg)” throughout. For the same compound, the “toxicity (Test 1, in words)” value in data set [4] was “no or mild toxicity”. The “Rotorod Toxicity” value in data set [4] (0.5 h) and in data set [4] (4.0 h) was “- (- = no activity or no toxicity at 300 mg/kg)” in each case.
With `Nc1nc(NC(=O)OCCSSCCOC(=O)c2cccnc2)nnc1-c1cccc(Cl)c1Cl` [I-CA-MPD24], the “activity in MES (Test 1, in words)” value in data set [2] was “active in both MES and scMET models”. The “MES (number of animal protected/number of animal tested)” value in data set [2] (setting [7]) was 3/3; in data set [2] (100 mg/kg (++), 4.0 h), 3/3; in data set [2] (100 mg/kg (++), 6 hours after dosing) it was “(3/3)^m”; in data set [5] (30 mg/kg, 0.50 h), 0/4; in data set [5] (30 mg/kg, 1.00 h) it was 2/4; in data set [5] (30 mg/kg, 2.00 h) it was 3/4. The “MES (number of animal protected/number of animal tested)” value in data set [5] (30 mg/kg, 4.00 h) is on record as 4/4. Besides, the MES result in data set [2] (0.5 h) is on record as “- (- = no activity or no toxicity at 300 mg/kg)”; in data set [2] (4.0 h), “++ (++ = activity or toxicity at 100 mg/kg)”; in data set [2] (setting [8]) it was “++ (++ = activity or toxicity at 100 mg/kg)”; in data set [2] (at 6 hours after dosing (footnotes g, m)), “++ (++ = activity or toxicity at 100 mg/kg)”. Also, the “activity in scMET (Test 1, in words)” value in data set [3] is “active in both MES and scMET models”. Also, the “ScMET (number of animal protected/number of animal tested)” value in data set [3] (300 mg/kg (+), 4.0 h) is on record as “(1/1)^l”. The ScMET entry in data set [3] (0.5 h) is reported as “- (- = no activity or no toxicity at 300 mg/kg)”. Besides, in data set [4], the “toxicity (Test 1, in words)” value is recorded as “non-toxic; also recorded: no or mild toxicity”. Besides, the “Rotorod Toxicity” value in data set [4] (0.5 h) and in data set [4] (4.0 h) was “- (- = no activity or no toxicity at 300 mg/kg)” in each case.
Turning to `Cl.Nc1nc(NC(=O)OCCSSCCNC(=O)c2cccnc2)nnc1-c1cccc(Cl)c1Cl` [I-CA-MPD25], in data set [2], the “activity in MES (Test 1, in words)” value is listed as “active in MES”. For the same compound, the “MES (number of animal protected/number of animal tested)” value is recorded as 2/3 in data set [2] (100 mg/kg (++), 4.0 h); “(1/1)” in data set [2] (300 mg/kg (+), 0.5 h); 1/1 in data set [2] (300 mg/kg (+), 4.0 h); 0/4 in data set [5] (30 mg/kg, 0.50 h); 3/4 in data set [5] (30 mg/kg, 1.00 h); 4/4 in data set [5] (30 mg/kg, 2.00 h). For the same compound, the “MES (number of animal protected/number of animal tested)” value in data set [5] (30 mg/kg, 4.00 h) is recorded as 2/4. For the same compound, the MES entry in data set [2] (0.5 h) is recorded as “+ (+ = activity or toxicity at 300 mg/kg)”. Moreover, the ScMET result in data set [3] (0.5 h) and in data set [3] (4.0 h) was “- (- = no activity or no toxicity at 300 mg/kg)” in each case. Also, in data set [4], the “toxicity (Test 1, in words)” value is listed as “no or mild toxicity”. Besides, the “Rotorod Toxicity” value in data set [4] (0.5 h) and in data set [4] (4.0 h) was “- (- = no activity or no toxicity at 300 mg/kg)” each time.
